According to patent US9321781B2, “Topoisomerase inhibitors” (Rutgers, The State University of New Jersey, priority 2009, dated 2016):
Read-outs that look alike come from different tables or passages of the source.

Columns and labels:
[1] = tested on: P388 mouse leukemia cell line; assay: MTT cytotoxicity assay (Test B), P388; format: cell-based; details: 96 h, P388 cells, continuous exposure four days
Protocol: (§1) Test B. Cytotoxic assays (cancer cell lines and efflux transporter cell lines)
(§2) The cytotoxicity was determined using the MTT-microtiter plate tetrazolinium cytotoxicity assay (MTA). The human lymphoblast RPMI 8402 and its camptothecin-resistant variant cell line, CPT-K5 was provided by Dr. Toshiwo Andoh (Aichi Cancer Center Research Institute, Nagoya, Japan). The P388 mouse leukemia cell line and its CPT-resistant TOP1-deficient variant P388/CPT45 were obtained from Michael R. Mattern and Randal K. Johnson (GlaxoSmithKline, King of Prussia, Pa.). The KB3-1 cell line and its multidrug-resistant variant KBV-1 were obtained from K.V. Chin (The Cancer Institute of New Jersey, New Brunswick, N.J.). The KBH5.0 cell line as noted previously was derived from KB3-1 by stepwise selection against Hoechst 33342. The cytotoxicity assay was performed using 96-well microtiter plates. Cells were grown in suspension at 37° C. in 5% CO2 and maintained by regular passage in RPMI medium supplemented with 10% heat inactivated fetal bovine serum, L-glutamine (2 mM), penicillin (100 U/mL), and Streptomycin (0.1 mg/mL). For determination of IC50, cells were exposed continuously for four days to varying concentrations of drug, and MTT assays were performed at the end of the fourth day. […] All assays were performed at least twice in six replicate wells.

[2] = tested on: P388/CPT45 (CPT-resistant TOP1-deficient variant of P388); assay: MTT cytotoxicity assay (Test B), P388/CPT45; format: cell-based; details: Mus musculus, P388CPT45, 96 h, P388/CPT45 cells, continuous exposure four days
Protocol: as §1, §2

BCRP = assay: MTT cytotoxicity assay, KBH5.0 efflux transporter cell line; format: cell-based; details: human, KBH5.0 cells (KB3-1 variant that overexpresses BCRP); KBH5.0 cells (BCRP overexpressing), continuous exposure four days, MTT
Protocol: as §1, §2
(§3) The cytotoxicity of the representative compounds of the invention were also tested against cell line KB3-1 (parent cell line), KBV-1 (a variant that overexpresses efflux transporter MDR1) and KBH5.0 (a variant that overexpresses BCRP). Differences in the relative cytotoxicity between the parent and variant cell lines may be indicative of a compound that is a substrate for an efflux transporter. […] Accordingly, compounds of the invention may be useful to treat tumors that are resistant to other anticancer agents, including anticancer agents that are susceptible to efflux by BCRP (e.g. anthracyclines, mitoxantrone, topotecan, irinotecan, bisanthrone, doxorubicin, daunorubicin, and epirubin.

[3] = MTT cytotoxicity assay, KB3-1 parent cell line; format: cell-based; details: human, KB3-1 cells (parent cell line), KB3-1 parent cells, continuous exposure four days
Protocol: as §1, §2, §3

[4] = tested on: CPT-K5 (camptothecin-resistant variant cell line of RPMI 8402); assay: MTT cytotoxicity assay (Test B), CPT-K5; format: cell-based, human; details: CPT-K5 cells, continuous exposure four days
Protocol: as §1, §2

MDR1 = assay: MTT cytotoxicity assay, KBV-1 efflux transporter cell line; format: cell-based; details: human, KBV-1 cells (KB3-1 variant that overexpresses MDR1), KBV-1 cells (MDR1 overexpressing), continuous exposure four days
Protocol: as §1, §2, §3

[5] = tested on: human lymphoblast RPMI 8402; assay: MTT cytotoxicity assay (Test B), RPMI 8402; format: cell-based; details: RPMI 8402 cells, continuous exposure four days, read-out: Cytotoxicity (IC50 values (μM) RPMI8402)
Protocol: as §1, §2

[6] = tested on: KBH5.0 (a variant that overexpresses BCRP); assay: MTT cytotoxicity assay, KBH5.0 efflux transporter cell line; format: cell-based; details: inferred from relative cytotoxicity KB3-1 vs KBH5.0
Protocol: as §1, §2, §3

COc1cc2c(cc1OC(=O)C(C)(C)C)c(=O)n(CCN(C)C)c1c3cc4c(cc3ncc21)OCO4 [Example 4, 5-(2-(dimethylamino)ethyl)-9-methoxy-2,3-methylenedioxy-6-oxo-5,6-dihydrodibenzo[c,h][1,6]naphthyridin-8-yl pivalate]
IC50 [1]: 0.003 µM
IC50 [2]: 0.25 µM
IC50 at 4 days (BCRP): 0.017 µM
IC50 at 4 days [3]: 0.002 µM
IC50 ([4]; Homo sapiens, CPT-K5, 96 h): 0.3 µM
IC50 at 4 days (MDR1): 0.024 µM
IC50 ([5]; Homo sapiens, RPMI 8402, 96 h): 0.0007 µM

CCOC(=O)Oc1cc2c(=O)n(CCN(C)C)c3c4cc5c(cc4ncc3c2cc1OC)OCO5 [Example 6, 5-(2-(dimethylamino)ethyl)-9-methoxy-2,3-methylenedioxy-6-oxo-5,6-dihydrodibenzo[c,h][1,6]naphthyridin-8-yl ethyl carbonate]
IC50 [1]: 0.0002 µM
IC50 [2]: 0.06 µM
IC50 at 4 days (BCRP): 0.008 µM
IC50 at 4 days [3]: 0.001 µM
IC50 ([4]; Homo sapiens, CPT-K5, 96 h): 0.25 µM
IC50 at 4 days (MDR1): 0.003 µM
IC50 ([5]; Homo sapiens, RPMI 8402, 96 h): 0.0006 µM

COc1cc2c(cc1OC(=O)c1ccccc1)c(=O)n(CCN(C)C)c1c3cc4c(cc3ncc21)OCO4 [Example 1, 5-(2-(dimethylamino)ethyl)-9-methoxy-2,3-methylenedioxy-6-oxo-5,6-dihydrodibenzo[c,h][1,6]naphthyridin-8-yl benzoate]
IC50 [1]: 0.002 µM
IC50 [2]: 0.12 µM
IC50 at 4 days (BCRP): 0.025 µM
IC50 at 4 days [3]: 0.002 µM
IC50 [4]: 0.55 µM
IC50 ([4]; Homo sapiens, CPT-K5, 96 h): 0.5 µM
IC50 at 4 days (MDR1): 0.06 µM
IC50 ([5]; Homo sapiens, RPMI 8402, 96 h): 0.006 µM
IC50 [5]: 0.009 µM

COc1cc2c(cc1OC(=O)N(C)C)c(=O)n(CCN(C)C)c1c3cc4c(cc3ncc21)OCO4 [Example 9, 5-(2-(dimethylamino)ethyl)-9-methoxy-2,3-methylenedioxy-6-oxo-5,6-dihydrodibenzo[c,h][1,6]naphthyridin-8-yl dimethylcarbamate]
IC50 [1]: 1.3 µM
IC50 [2]: 3.8 µM
IC50 at 4 days (BCRP): 2 µM
IC50 at 4 days [3]: 0.4 µM
IC50 ([4]; Homo sapiens, 96 h): > 10 µM
IC50 at 4 days (MDR1): 3 µM
IC50 ([5]; Homo sapiens, 96 h): 1.7 µM

COc1cc2c(cc1OC(=O)N1CCC(N3CCCCC3)CC1)c(=O)n(CCN(C)C)c1c3cc4c(cc3ncc21)OCO4 [Example 10, 5-(2-(dimethylamino)ethyl)-9-methoxy-2,3-methylenedioxy-6-oxo-5,6-dihydrodibenzo[c,h][1,6]naphthyridin-8-yl 1,4′-bipiperidine-1′-carboxylate]
IC50 [1]: 0.5 µM
IC50 [2]: 0.5 µM
IC50 at 4 days (BCRP): 1.1 µM
IC50 at 4 days [3]: 0.75 µM
IC50 ([4]; Homo sapiens, 96 h): 1.5 µM
IC50 at 4 days (MDR1): 1.6 µM
IC50 ([5]; Homo sapiens, 96 h): 0.55 µM

COc1cc2c(cc1OC(=O)OC(C)(C)C)c(=O)n(CCN(C)C)c1c3cc4c(cc3ncc21)OCO4 [Example 7, tert-butyl 5-(2-(dimethylamino)ethyl)-9-methoxy-2,3-methylenedioxy-6-oxo-5,6-dihydrodibenzo[c,h][1,6]naphthyridin-8-yl carbonate]
IC50 [1]: 0.001 µM
IC50 [2]: 0.08 µM
IC50 at 4 days (BCRP): 0.009 µM
IC50 at 4 days [3]: 0.002 µM
IC50 ([4]; Homo sapiens, CPT-K5, 96 h): 0.31 µM
IC50 at 4 days (MDR1): 0.004 µM
IC50 ([5]; Homo sapiens, RPMI 8402, 96 h): 0.0005 µM

COc1cc2c(cc1OC(C)=O)c(=O)n(CCN(C)C)c1c3cc4c(cc3ncc21)OCO4 [Example 3, 5-(2-(dimethylamino)ethyl)-9-methoxy-2,3-methylenedioxy-6-oxo-5,6-dihydrodibenzo[c,h][1,6]naphthyridin-8-yl acetate]
IC50 [1]: 0.004 µM
IC50 [2]: 0.3 µM
IC50 at 4 days (BCRP): 0.025 µM
IC50 at 4 days [3]: 0.007 µM
IC50 ([4]; Homo sapiens, CPT-K5, 96 h): 0.7 µM
IC50 at 4 days (MDR1): 0.06 µM
IC50 ([5]; Homo sapiens, RPMI 8402, 96 h): 0.009 µM

COc1cc2c(cc1OC(=O)CCC1CCCC1)c(=O)n(CCN(C)C)c1c3cc4c(cc3ncc21)OCO4 [Example 5, 5-(2-(dimethylamino)ethyl)-9-methoxy-2,3-methylenedioxy-6-oxo-5,6-dihydrodibenzo[c,h][1,6]naphthyridin-8-yl (3-cyclopentyl)propionate]
IC50 [1]: 0.002 µM
IC50 [2]: 0.07 µM
IC50 at 4 days (BCRP): 0.013 µM
IC50 at 4 days [3]: 0.003 µM
IC50 ([4]; Homo sapiens, CPT-K5, 96 h): 0.33 µM
IC50 at 4 days (MDR1): 0.058 µM
IC50 ([5]; Homo sapiens, RPMI 8402, 96 h): 0.003 µM

COc1cc2c(cc1OC(=O)c1ccccc1C)c(=O)n(CCN(C)C)c1c3cc4c(cc3ncc21)OCO4 [Example 2, 5-(2-(dimethylamino)ethyl)-9-methoxy-2,3-methylenedioxy-6-oxo-5,6-dihydrodibenzo[c,h][1,6]naphthyridin-8-yl 2-methylbenzoate]
IC50 [1]: 0.03 µM
IC50 [2]: 0.4 µM
IC50 at 4 days (BCRP): 0.04 µM
substrate for efflux transporter BCRP [6]: not a substrate for BCRP
IC50 at 4 days [3]: 0.04 µM
IC50 ([4]; Homo sapiens, CPT-K5, 96 h): 2 µM
IC50 at 4 days (MDR1): 0.2 µM
IC50 ([5]; Homo sapiens, RPMI 8402, 96 h): 0.07 µM
IC50 [5]: 0.05 µM

CCNC(=O)Oc1cc2c(=O)n(CCN(C)C)c3c4cc5c(cc4ncc3c2cc1OC)OCO5 [Example 8, 5-(2-(dimethylamino)ethyl)-9-methoxy-2,3-methylenedioxy-6-oxo-5,6-dihydrodibenzo[c,h][1,6]naphthyridin-8-yl ethylcarbamate]
IC50 [1]: 0.003 µM
IC50 [2]: 0.09 µM
IC50 at 4 days (BCRP): 0.015 µM
IC50 at 4 days [3]: 0.004 µM
IC50 ([4]; Homo sapiens, 96 h): 0.5 µM
IC50 at 4 days (MDR1): 0.04 µM
IC50 ([5]; Homo sapiens, 96 h): 0.003 µM
